Measurements from ChEMBL document CHEMBL1201862, “PubChem BioAssay data set” (2004).
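Assay format: 96-well plates, 48-hour exposure. At the GI50, growth is halved.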 The source made the active and inactive calls. No stated cut-off is given here; in the data, active = GI50 up to about 1.1 µM and inactive = higher.

Tests used:
Test in all cases: inhibition of tumour cell growth, NCI panel, 48 h
[1] = tested on: HT-29
[2] = tested on: OVCAR-5
[3] = tested on: SR
[4] = tested on: SF-295
[5] = tested on: HOP-62
[6] = tested on: CAKI-1
[7] = tested on: NCI-H460
[8] = tested on: KM12
[9] = tested on: HCC 2998
[10] = tested on: SNB-19
[11] = tested on: TK-10
[12] = tested on: OVCAR-4
[13] = tested on: BT-549
[14] = tested on: SK-OV-3
[15] = tested on: DU-145
[16] = tested on: MDA-N
[17] = tested on: Hs-578T
[18] = tested on: RXF 393
[19] = tested on: HL-60

Row | Compound | GI50 [1] | GI50 [2] | GI50 [3] | GI50 [4] | GI50 [5] | GI50 [6] | GI50 [7] | GI50 [8] | GI50 [9] | GI50 [10] | GI50 [11] | GI50 [12] | GI50 [13] | GI50 [14] | GI50 [15] | GI50 [16] | GI50 [17] | GI50 [18] | GI50 [19]
1 | C/C=C\C(CC(=O)NCC(=O)c1c[nH]c2ccccc12)CC(=O)OC (stereo not drawn) | > 100 µM (inactive) | > 100 µM (inactive) | > 100 µM (inactive) | > 100 µM (inactive) | > 100 µM (inactive) | > 100 µM (inactive) | > 100 µM (inactive) | > 100 µM (inactive) | > 100 µM (inactive) | > 100 µM (inactive) | > 100 µM (inactive) | > 100 µM (inactive) | > 100 µM (inactive) | > 100 µM (inactive) | > 100 µM (inactive) | > 100 µM (inactive) | > 100 µM (inactive) | > 100 µM (inactive) | 
2 | Cc1nnc(N/N=C2/C(=O)Nc3ccccc32)nc1O | > 100 µM (inactive) | > 100 µM (inactive) | > 100 µM (inactive) | > 100 µM (inactive) | > 100 µM (inactive) |  | > 100 µM (inactive) | > 100 µM (inactive) |  | > 100 µM (inactive) | > 100 µM (inactive) | > 100 µM (inactive) | > 100 µM (inactive) | > 100 µM (inactive) | > 100 µM (inactive) | > 100 µM (inactive) | > 100 µM (inactive) |  | > 100 µM (inactive)
3 | Nc1nc(=O)n(C2CC(O)C(CO)O2)c2nc(-c3ccc(-c4ccccc4)cc3)cnc12 (stereo not drawn) | > 100 µM (inactive) | > 100 µM (inactive) | 27.7 µM (inactive) | 48.5 µM (inactive) | 27.2 µM (inactive) | > 100 µM (inactive) | > 100 µM (inactive) | > 10 µM (inactive) | 41.9 µM (inactive) | 29 µM (inactive) | > 100 µM (inactive) | > 100 µM (inactive) | > 100 µM (inactive) | > 100 µM (inactive) | > 100 µM (inactive) | 58.2 µM (inactive) | 36.3 µM (inactive) | 31.2 µM (inactive) | 
4 | CCCCN1C(=O)N(c2ccc(OCC)cc2)C2N(CCCC)C1C(C)(C)C2(C)C (stereo not drawn) | 38.5 µM (inactive) |  |  | 47.4 µM (inactive) | 35.9 µM (inactive) | 26.3 µM (inactive) | 42.2 µM (inactive) | 34.1 µM (inactive) | 51.3 µM (inactive) | 35.6 µM (inactive) | 22.5 µM (inactive) | 37.8 µM (inactive) | 30.3 µM (inactive) | 19.2 µM (inactive) | 30.1 µM (inactive) | 22 µM (inactive) | 18.6 µM (inactive) | 16.3 µM (inactive) | 
5 | N#Cc1c(-c2ccccc2)cc(Nc2ccc(Cl)cc2)n2c1nc1ccccc12 | 2.14 µM (inactive) | 3.9 µM (inactive) | 2.73 µM (inactive) | 3.4 µM (inactive) | 3.67 µM (inactive) | 3.59 µM (inactive) | 1.67 µM (inactive) | 2.94 µM (inactive) | 3.78 µM (inactive) | 2.93 µM (inactive) | 4.45 µM (inactive) | 3.23 µM (inactive) | 4.59 µM (inactive) | 2.72 µM (inactive) | 3.45 µM (inactive) | 2.42 µM (inactive) | 1.59 µM (inactive) | 4.35 µM (inactive) | 
6 | CC(=O)c1ccc2c3c1O[C@H]1c4[nH]c5ccccc5c4C[C@@]4(O)[C@@H](C2)N(CC2CC2)CC[C@]314 | 4.13 µM (inactive) | 13.2 µM (inactive) |  | 15.6 µM (inactive) | 21 µM (inactive) | 20 µM (inactive) | 0.497 µM (active) | 21.3 µM (inactive) |  | 0.573 µM (active) | 18.2 µM (inactive) | 20.6 µM (inactive) | 14.5 µM (inactive) | 20.1 µM (inactive) | 20.6 µM (inactive) | 17.7 µM (inactive) | 0.933 µM (active) | 13.8 µM (inactive) | 16.1 µM (inactive)
7 | Cc1cc2c(c(=O)n1C)SCC2 | > 100 µM (inactive) | > 100 µM (inactive) | > 100 µM (inactive) | > 100 µM (inactive) | > 100 µM (inactive) | > 100 µM (inactive) | > 100 µM (inactive) | > 100 µM (inactive) | > 100 µM (inactive) | > 100 µM (inactive) | > 100 µM (inactive) | > 100 µM (inactive) | > 100 µM (inactive) | > 100 µM (inactive) | > 100 µM (inactive) | > 100 µM (inactive) | > 100 µM (inactive) | > 100 µM (inactive) | 
8 | N=C(N)SCCSC(=N)N | > 100 µM (inactive) | > 100 µM (inactive) |  | > 100 µM (inactive) | > 100 µM (inactive) | > 100 µM (inactive) | > 100 µM (inactive) | > 100 µM (inactive) | > 100 µM (inactive) | > 100 µM (inactive) | > 100 µM (inactive) | > 100 µM (inactive) | > 100 µM (inactive) | > 100 µM (inactive) | > 100 µM (inactive) | > 100 µM (inactive) | > 100 µM (inactive) | > 100 µM (inactive) | 
